Test [1] deals with Diabrotica Balteata (Corn Root Worm). Kind of test: Diabrotica balteata (Corn Root Worm). The following applies: in Zea mays, 96 h, read-out: effect in at least one of the two categories (mortality or growth inhibition).
The subject of test [2] is Myzus persicae (Green Peach Aphid). Kind of test: whole plant or invertebrate. Type of test: in vivo. The following applies: 144 h, test rate of 24 ppm, systemic, roots of infested pea seedlings in test solution, 6 days.
The test system of test [3] is Euschistus heros (Neotropical Brown Stink Bug). The test can be described thus: whole plant or invertebrate. It is filed as in vivo. The following applies: 120 h, application rate of 200 ppm, N2 nymphs on sprayed soybean leaves, 5 days after infestation, read-out: effect in at least one of the two categories (mortality or growth inhibition).
Test [4] has as its system Myzus persicae (Green Peach Aphid). Kind of test: whole plant or invertebrate. The following applies: foliar, 144 h.
The subject of test [5] is Plutella xylostella (Diamond Back Moth). The test can be described thus: whole plant or invertebrate. Type of test: in vivo. The following applies: 120 h, application rate of 200 ppm, L2 larvae on treated artificial diet, 5 days after infestation, read-out: effect in at least one of the two categories (mortality or growth inhibition).

A value given as a limit tells only on which side of the number the result lay.

As usually defined, the mortality is the percentage killed. As for `C#CCOc1cnc(-c2nc3cc(C(F)(F)F)ncc3n2C)c(SCC)c1` [Compound P17, 2-(3-ethylsulfanyl-5-prop-2-ynoxy-2-pyridyl)-3-methyl-6-(trifluoromethyl)imidazo[4,5-c]pyridine], the mortality at 200 ppm in test [1] was at least 80%.
`CCS(=O)(=O)c1cc(OCCS(C)(=O)=O)ccc1-c1nc2cc(C(F)(F)F)ncc2n1C` [Compound P102, 2-[2-ethylsulfonyl-4-(2-methylsulfonylethoxy)phenyl]-3-methyl-6-(trifluoromethyl)imidazo[4,5-c]pyridine]: the mortality at 24 ppm in test [2] is at least 80%. Besides, the percent effect (mortality or growth inhibition) at 200 ppm in test [3] was at least 80%. Further, in test [4], the mortality at 200 ppm was at least 80%.
Take `CCS(=O)(=O)c1cc(OCS(C)(=N)=O)cnc1-c1nc2cc(C(F)(F)F)ncc2n1C` (stereo not drawn) [Compound P80, [5-ethylsulfonyl-6-[3-methyl-6-(trifluoromethyl)imidazo[4,5-c]pyridin-2-yl]-3-pyridyl]oxymethyl-imino-methyl-oxo-$|^6-sulfane]: in test [2], the mortality at 24 ppm is at least 80%. Further, the percent effect (mortality or growth inhibition) at 200 ppm in test [3] is at least 80%. Further, the mortality at 200 ppm in test [4] is at least 80%.
Take `CCSc1cc(OC2(C)COC2)cnc1-c1nc2cc(C(F)(F)F)ncc2n1C` [Compound P14, 2-[3-ethylsulfanyl-5-(3-methyloxetan-3-yl)oxy-2-pyridyl]-3-methyl-6-(trifluoromethyl)imidazo[4,5-c]pyridine]: the percent effect (mortality or growth inhibition) at 200 ppm in test [5] was at least 80%. Also, the mortality at 200 ppm in test [1] was at least 80%.
Turning to `CCS(=O)(=O)c1cc(OS(=O)(=O)C(F)F)cnc1-c1nc2cc(C(F)(F)F)ncc2n1C` [Compound P91, [5-ethylsulfonyl-6-[3-methyl-6-(trifluoromethyl)imidazo[4,5-c]pyridin-2-yl]-3-pyridyl] difluoromethanesulfonate], the mortality at 200 ppm in test [1] was at least 80%.
Consider `CCSc1cc(OC2COC2)cnc1-c1nc2cc(C(F)(F)F)ncc2n1C` [Compound P2, 2-[3-ethylsulfanyl-5-(oxetan-3-yloxy)-2-pyridyl]-3-methyl-6-(trifluoromethyl)imidazo[4,5-c]pyridine], for which the percent effect (mortality or growth inhibition) at 200 ppm in test [3] was at least 80%. In addition, the mortality at 200 ppm in test [1] is at least 80%.
For the compound `CCSc1cc(OCC2CC2)cnc1-c1nc2cc(C(F)(F)F)ncc2n1C` [Compound P23, 2-[5-(cyclopropylmethoxy)-3-ethylsulfanyl-2-pyridyl]-3-methyl-6-(trifluoromethyl)imidazo[4,5-c]pyridine], the percent effect (mortality or growth inhibition) at 200 ppm in test [5] is at least 80%. The mortality at 200 ppm in test [4] and in test [1] was at least 80% in each case.
Consider `C=CCOc1cnc(-c2nc3cc(C(F)(F)F)ncc3n2C)c(SCC)c1` [Compound P95, 2-(5-allyloxy-3-ethylsulfanyl-2-pyridyl)-3-methyl-6-(trifluoromethyl)imidazo[4,5-c]pyridine], for which the mortality at 200 ppm in test [1] is at least 80%.
As to `CCSc1cc(OC(C)(C)C(N)=O)cnc1-c1nc2cc(C(F)(F)F)ncc2n1C` [Compound P77, 2-[[5-ethylsulfanyl-6-[3-methyl-6-(trifluoromethyl)imidazo[4,5-c]pyridin-2-yl]-3-pyridyl]oxy]-2-methyl-propanamide], the percent effect (mortality or growth inhibition) at 200 ppm in test [3] is at least 80%.
Regarding `CCS(=O)(=O)c1cc(OC(SC)C(=O)N(C)C)cnc1-c1nc2cc(C(F)(F)F)ncc2n1C` (stereo not drawn) [Compound P36, 2-[[5-ethylsulfonyl-6-[3-methyl-6-(trifluoromethyl)imidazo[4,5-c]pyridin-2-yl]-3-pyridyl]oxy]-N,N-dimethyl-2-methylsulfanyl-acetamide], the percent effect (mortality or growth inhibition) at 200 ppm in test [3] was at least 80%.
For the compound `CCS(=O)(=O)c1cc(OCC(=O)N(C)C)cnc1-c1nc2cc(C(F)(F)F)ncc2n1C` [Compound P51, 2-[[5-ethylsulfonyl-6-[3-methyl-6-(trifluoromethyl)imidazo[4,5-c]pyridin-2-yl]-3-pyridyl]oxy]-N,N-dimethyl-acetamide], in test [2], the mortality at 24 ppm was at least 80%. Also, the percent effect (mortality or growth inhibition) at 200 ppm in test [3] was at least 80%.
As for `CCS(=O)(=O)c1cc(OS(C)(=O)=O)cnc1-c1nc2cc(C(F)(F)F)ncc2n1C` [Compound P93, [5-ethylsulfonyl-6-[3-methyl-6-(trifluoromethyl)imidazo[4,5-c]pyridin-2-yl]-3-pyridyl] methanesulfonate], the percent effect (mortality or growth inhibition) at 200 ppm in test [5] is at least 80%. Besides, the mortality at 200 ppm in test [4] is at least 80%.
As to `CCSc1cc(OCC(C)(C)C)cnc1-c1nc2cc(C(F)(F)F)ncc2n1C` [Compound P25, 2-[5-(2,2-dimethylpropoxy)-3-ethylsulfanyl-2-pyridyl]-3-methyl-6-(trifluoromethyl)imidazo[4,5-c]pyridine], the percent effect (mortality or growth inhibition) at 200 ppm in test [5] is at least 80%. The same compound came in with a mortality at 200 ppm in test [4] of at least 80%.
Turning to `CCS(=O)(=O)c1cc(OC(F)(F)CBr)cnc1-c1nc2cc(C(F)(F)F)ncc2n1C` [Compound P109, 2-[5-(2-bromo-1,1-difluoro-ethoxy)-3-ethylsulfonyl-2-pyridyl]-3-methyl-6-(trifluoromethyl)imidazo[4,5-c]pyridine], the percent effect (mortality or growth inhibition) at 200 ppm in test [5] was at least 80%.
With `CCSc1cc(OC(C#N)(CC)CC)cnc1-c1nc2cc(C(F)(F)F)ncc2n1C` [Compound P43, 2-ethyl-2-[[5-ethylsulfanyl-6-[3-methyl-6-(trifluoromethyl)imidazo[4,5-c]pyridin-2-yl]-3-pyridyl]oxy]butanenitrile], the percent effect (mortality or growth inhibition) at 200 ppm in test [3] was at least 80%.
In test [2], `CCS(=O)(=O)c1cc(OC(C)(C)COC)cnc1-c1nc2cc(C(F)(F)F)ncc2n1C` [Compound P48, 2-[3-ethylsulfonyl-5-(2-methoxy-1,1-dimethyl-ethoxy)-2-pyridyl]-3-methyl-6-(trifluoromethyl)imidazo[4,5-c]pyridine] yielded a mortality at 24 ppm of at least 80%. In test [5], the percent effect (mortality or growth inhibition) at 200 ppm was at least 80%. In test [4], the mortality at 200 ppm is at least 80%.
In turn, `CCS(=O)(=O)c1cc(OC(C)(C)C(=O)NC)cnc1-c1nc2cc(C(F)(F)F)ncc2n1C` [Compound P55, 2-[[5-ethylsulfonyl-6-[3-methyl-6-(trifluoromethyl)imidazo[4,5-c]pyridin-2-yl]-3-pyridyl]oxy]-N,2-dimethyl-propanamide] displayed a mortality at 24 ppm in test [2] of at least 80%. In test [4], the mortality at 200 ppm is at least 80%.
Regarding `CCS(=O)(=O)c1cc(OCc2cc(C3CC3)no2)cnc1-c1nc2cc(C(F)(F)F)ncc2n1C` [Compound P83, 3-cyclopropyl-5-[[5-ethylsulfonyl-6-[3-methyl-6-(trifluoromethyl)imidazo[4,5-c]pyridin-2-yl]-3-pyridyl]oxymethyl]isoxazole], the percent effect (mortality or growth inhibition) at 200 ppm in test [3] and in test [5] was at least 80% throughout. For the same compound, the mortality at 200 ppm in test [1] was at least 80%.
Take `CCS(=O)(=O)c1cc(OC(SC)C(=O)NC)cnc1-c1nc2cc(C(F)(F)F)ncc2n1C` (stereo not drawn) [Compound P37, 2-[[5-ethylsulfonyl-6-[3-methyl-6-(trifluoromethyl)imidazo[4,5-c]pyridin-2-yl]-3-pyridyl]oxy]-N-methyl-2-methylsulfanyl-acetamide]: in test [3], the percent effect (mortality or growth inhibition) at 200 ppm was at least 80%. Moreover, the mortality at 200 ppm in test [4] was at least 80%.
As to `CCS(=O)(=O)c1cc(OC/C(C)=N/OC)cnc1-c1nc2cc(C(F)(F)F)ncc2n1C` [Compound P64, 1-[[5-ethylsulfonyl-6-[3-methyl-6-(trifluoromethyl)imidazo[4,5-c]pyridin-2-yl]-3-pyridyl]oxy]-N-methoxy-propan-2-imine], the percent effect (mortality or growth inhibition) at 200 ppm in test [3] and in test [5] was at least 80% in each case. The compound further yielded a mortality at 200 ppm in test [4] of at least 80%.
`CCS(=O)(=O)c1cc(OCCS(C)(=O)=O)cnc1-c1nc2cc(C(F)(F)F)ncc2n1C` [Compound P7, 2-[3-ethylsulfonyl-5-(2-methylsulfonylethoxy)-2-pyridyl]-3-methyl-6-(trifluoromethyl)imidazo[4,5-c]pyridine] displayed a mortality at 24 ppm in test [2] of at least 80%. In addition, in test [3], the percent effect (mortality or growth inhibition) at 200 ppm was at least 80%. The compound further yielded a mortality at 200 ppm in test [4] of at least 80%.
For the compound `CCS(=O)(=O)c1cc(OC(C)(C)C(=O)N(C)C)cnc1-c1nc2cc(C(F)(F)F)ncc2n1C` [Compound P59, 2-[[5-ethylsulfonyl-6-[3-methyl-6-(trifluoromethyl)imidazo[4,5-c]pyridin-2-yl]-3-pyridyl]oxy]-N,N,2-trimethyl-propanamide], the mortality at 24 ppm in test [2] is at least 80%.
The same measure, in the same setting: under `CCS(=O)(=O)c1cc(OC(C(=O)N(C)C)S(C)(=O)=O)cnc1-c1nc2cc(C(F)(F)F)ncc2n1C` (stereo not drawn) [Compound P38, 2-[[5-ethylsulfonyl-6-[3-methyl-6-(trifluoromethyl)imidazo[4,5-c]pyridin-2-yl]-3-pyridyl]oxy]-N,N-dimethyl-2-methylsulfonyl-acetamide] stands at least 80%.
In turn, `CCS(=O)(=O)c1cc(OCC2(C)COC2)cnc1-c1nc2cc(C(F)(F)F)ncc2n1C` [Compound P54, 2-[3-ethylsulfonyl-5-[(3-methyloxetan-3-yl)methoxy]-2-pyridyl]-3-methyl-6-(trifluoromethyl)imidazo[4,5-c]pyridine] showed a mortality at 24 ppm in test [2] of at least 80%. Moreover, the percent effect (mortality or growth inhibition) at 200 ppm in test [3] is at least 80%. Besides, the mortality at 200 ppm in test [4] was at least 80%.
As to `CCS(=O)(=O)c1cc(OCc2ccccc2)cnc1-c1nc2cc(C(F)(F)F)ncc2n1C` [Compound P94, 2-(5-benzyloxy-3-ethylsulfonyl-2-pyridyl)-3-methyl-6-(trifluoromethyl)imidazo[4,5-c]pyridine], the mortality at 200 ppm in test [1] is at least 80%.

(Values after patent publication US20200216441A1, “PESTICIDALLY ACTIVE HETEROCYCLIC DERIVATIVES WITH SULFUR CONTAINING SUBSTITUENTS” (SYNGENTA PARTICIPATIONS AG, priority 2017, published 2020).)
